Article PMC7349657, “Efficient Targeted Degradation via Reversible and Irreversible Covalent PROTACs” (Journal of the American Chemical Society, 2020)

Molecular target: BTK (Homo sapiens, UniProt Q06187)
Assay: Mechanism validation: pretreatment with ibrutinib, thalidomide-OH or bortezomib before PROTAC in Mino cells
Format: cell-based
Set-up: endogenous in cells; host or cells: Mino (ATCC CRL-3000), Ramos (ATCC CRL-1596), K562 (NCI-60)
Settings: 2 h pretreatment, then PROTAC 24 h

Sequence of BTK (Q06187 whole entry): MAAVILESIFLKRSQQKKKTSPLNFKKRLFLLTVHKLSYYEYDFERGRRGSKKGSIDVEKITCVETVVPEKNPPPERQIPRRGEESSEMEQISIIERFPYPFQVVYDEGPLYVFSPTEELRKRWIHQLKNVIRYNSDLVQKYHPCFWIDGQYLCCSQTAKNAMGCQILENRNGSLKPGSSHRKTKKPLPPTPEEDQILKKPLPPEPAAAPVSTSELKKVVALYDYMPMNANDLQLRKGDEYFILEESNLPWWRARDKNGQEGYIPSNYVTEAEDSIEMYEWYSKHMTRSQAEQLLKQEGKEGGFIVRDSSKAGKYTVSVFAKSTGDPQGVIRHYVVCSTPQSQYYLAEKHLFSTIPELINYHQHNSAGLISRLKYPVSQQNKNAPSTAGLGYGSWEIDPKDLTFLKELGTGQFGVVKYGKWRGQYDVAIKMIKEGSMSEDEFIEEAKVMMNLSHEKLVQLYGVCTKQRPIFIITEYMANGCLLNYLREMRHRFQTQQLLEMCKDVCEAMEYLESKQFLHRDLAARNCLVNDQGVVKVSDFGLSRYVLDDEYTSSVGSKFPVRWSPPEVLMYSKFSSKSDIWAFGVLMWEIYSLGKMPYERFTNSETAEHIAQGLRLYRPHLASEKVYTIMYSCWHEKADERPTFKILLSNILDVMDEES

BTK degradation after thalidomide-OH pretreatment: only slightly hindered by thalidomide
SMILES: Nc1ncnc2c1c(-c1ccc(Oc3ccccc3)cc1)nn2C1CCCN(C(=O)CCCCCCOCCOCCOCCOCCOc2cccc3c2C(=O)N(C2CCC(=O)NC2=O)C3=O)C1 (stereo not shown) [NC-1]
